Data from article PMC6930503, “Antiviral, Antimicrobial and Antibiofilm Activity of Selenoesters and Selenoanhydrides” (Molecules, 2019).
≈ marks a conversion by molar mass, not a printed value.

Legend:
[1] = test system: Candida albicans ATCC 10231; conditions: reference, range calculated from data in bibliography; cited from earlier work
[2] = test system: Candida parapsilosis ATCC 22019; conditions: reference, range calculated from data in bibliography; cited from earlier work
[3] = test system: Candida krusei ATCC 14243; conditions: reference, range calculated from data in bibliography; cited from earlier work
[4] = test system: Candida glabrata ATCC 36909; test: Antifungal disk-diffusion; conditions: Nakaseomyces glabratus, ATCC36909, 72 h; for zone of inhibition at 200 µM: read-out: Inhibition Zone Diameter, 200 µM on disk, 72 h; for zone of inhibition at 10000 µM: read-out: Inhibition Zone Diameter, 10 mM on disk, 72 h
Experimental: (§6) Disk diffusion. The antifungal activity of the selenocompounds against selected pathogenic yeasts were screened, measuring their inhibition zones [49]. Solutions of the selenocompounds were set at two concentrations: 200 µM (from a 10 mM stock solution) and 10 mM. The sterile filter paper discs (diameter (D) 6 mm) impregnated with the solutions (10 µL of solutions) were placed on Saboraud Dextrose Agar (SDA), inoculated with the respective suspensions of yeasts (inocula of 0.5 McFarland’s standard). The solvent (DMSO) served as negative control, and an additional plate was inoculated without disks, to serve as growth control. The inocula were used within 15 min of preparation, the disks were applied within 15 min of inoculating the plates, and incubation started within 15 min of application of the disks (according to EUCAST standards). The plates were then incubated for 72 h, under aerobic conditions, at 37 °C. Inhibition zone diameters generated by the tested compounds (including the diameter of the disc) were measured. All experiments were performed in triplicate.

[5] = test system: Candida tropicalis ATCC 13803; test: Antifungal disk-diffusion; conditions: ATCC13803, 72 h, read-out: Inhibition Zone Diameter
Experimental: as §6

[6] = test system: Candida parapsilosis ATCC 22019; test: Antifungal disk-diffusion; conditions: Lodderomyces parapsilosis, ATCC22019, 72 h, read-out: Inhibition Zone Diameter
Experimental: as §6

[7] = test system: Candida albicans ATCC 10231; test: Antifungal disk-diffusion; conditions: ATCC10231, 72 h, read-out: Inhibition Zone Diameter
Experimental: as §6

HSV-2 = test: Anti-HSV-2 activity by qPCR in infected Vero cells; conditions: for minimal effective concentration: Human alphaherpesvirus 2, Vero, 24 h, read-out: lowest concentration with (significant) antiviral activity against HSV-2, Vero cells infected with HSV-2, MOI 0.01, qPCR after 24 h; for antiviral activity at x-fold lower concentration than acyclovir: compared with acyclovir
[8] = MTT cytotoxicity assay on Vero cells; conditions: African green monkey
[9] = test system: Candida krusei ATCC 14243; test: Antifungal disk-diffusion; conditions: Pichia kudriavzevii, ATCC14243, 72 h; for zone of inhibition at 200 µM: read-out: Inhibition Zone Diameter, 200 µM on disk, 72 h; for zone of inhibition at 10000 µM: read-out: Inhibition Zone Diameter, 10 mM on disk, 72 h
Experimental: as §6

S. aureus ATCC 25923 [10] = test: Biofilm formation assay with crystal violet; assay type: cell-based; conditions: Staphylococcus aureus, ATCC25923, 48 h; for inhibition at 50 µM: compound at 50 μM
Experimental: (§1) The biofilm-forming ability of S. Typhimurium and S. aureus ATCC strains was studied in 96-well microtiter plates, using Luria-Bertani (LB) broth without salt (S. Typhimurium) or tryptic soy broth TSB (S. aureus) in the presence of selenocompounds. Initially, overnight cultures were diluted to an optical density (OD) of 0.1 at 600 nm and then added to each well, with the exception of the medium control wells and compounds were added individually at ½ MIC. The final volume was 200 μL in each well. Plates were incubated at 30 °C, for 48 h, with gentle agitation (100 rpm). After the incubation period, the medium was discarded, and the plate was washed with tap water, to remove unattached cells. Then, 200 μL of crystal violet (CV; 0.1% [v/v]) was added to the wells and incubated for 15 min at room temperature. CV was removed from the wells, and the plate was washed again with tap water. Then, 200 μL of 70% ethanol was added to each well, and the biofilm formation was determined by measuring the OD at 600 nm, using a FLUOstar Optima plate reader (BMG Labtech, Aylesbury, UK). The antibiofilm effect of selenocompounds was expressed in the percentage (%) decrease in biofilm formation. The assay was repeated a minimum of three times. The results were analyzed by using the t-test and p-values of <0.05 were considered significant.

[11] = test system: Candida albicans ATCC 10231; test: Antifungal broth microdilution MIC; assay type: cell-based; conditions: ATCC10231, read-out: Minimal inhibitory concentration
Experimental: (§2) This MIC values were calculated by using the broth microdilution method (Table 3).
(§3) Broth microdilution method. […] Determination of the MIC values was performed by using the broth microdilution method, according to EUCAST standards.

[12] = test system: Candida parapsilosis ATCC 22019; test: Antifungal broth microdilution MIC; assay type: cell-based; conditions: Lodderomyces parapsilosis, ATCC22019, read-out: Minimal inhibitory concentration
Experimental: as §2, §3

[13] = test system: Cryptococcus diffluens ATCC 32059; test: Antifungal broth microdilution MIC; assay type: cell-based; conditions: Naganishia diffluens, ATCC32059, read-out: Minimal inhibitory concentration
Experimental: as §2, §3

[14] = test system: Candida krusei ATCC 14243; test: Antifungal broth microdilution MIC; assay type: cell-based; conditions: Pichia kudriavzevii, ATCC14243, read-out: Minimal inhibitory concentration
Experimental: as §2, §3

[15] = test system: S. enterica serovar Typhimurium 14028s; test: Biofilm formation assay with crystal violet; assay type: cell-based, Salmonella enterica serovar Typhimurium; conditions: Salmonella enterica, compound at 50 μM, 48 h
Experimental: as §1

[16] = test system: S. enterica serovar Typhimurium 14028s; test: Antibiofilm effect in combination with tetracycline; assay type: cell-based, Salmonella enterica serovar Typhimurium; conditions: compound at ½ MIC; for antibiofilm effect in the presence of TET: 1.25 µM of TET; for effect on the antibiofilm activity of TET compared to TET alone: 2.5 µM of TET
Experimental: (§4) […]; 4, 5, 7, 8 and 9 for S. Typhimurium).
(§5) […]. The effect was determined by two-fold broth microdilution method in 96-well plates, using serial dilutions of TET and CIP. The first four rows contained two-fold dilutions of antibiotics, and combinations of the antibiotics and tested compounds were added into the last four rows. The overnight bacterial cultures were diluted to an OD of 0.1 at 600 nm and then added to each well, in 50 μL LB, without salt or TSB, with the exception of the medium control wells. The plates were then incubated at 30 °C, for 48 h, with gentle agitation (100 rpm), and the biofilm formation was determined by measuring the OD at 600 nm, using a FLUOstar Optima plate reader. The antibiofilm effect of antibiotic alone and in combination with selenocompounds was expressed in the percentage (%) of decrease in biofilm formation. The results were analyzed by using the t-test and p-values of <0.05 were considered significant.

[17] = test system: selected pathogenic yeasts; test: Antifungal disk-diffusion screening, overall statement on all evaluated strains; conditions: 200 µM and 10 mM on disk
Experimental: as §6

S. aureus ATCC 25923 [18] = test: Antibiofilm effect in combination with ciprofloxacin; assay type: cell-based, Staphylococcus aureus; conditions: CIP at 1.6 µM, compound at ½ MIC
Experimental: as §4, §5

[19] = test system: Cryptococcus diffluens ATCC 32059; test: Antifungal disk-diffusion; conditions: Naganishia diffluens, ATCC32059, 72 h, read-out: Inhibition Zone Diameter
Experimental: as §6

[20] = Vero cells infected with HSV-2, qPCR

SMILES	zone of inhibition at 10000 µM [4] [mm]	zone of inhibition at 10000 µM [6] [mm]	zone of inhibition at 10000 µM [7] [mm]	minimal effective concentration (HSV-2) [µM]	antiviral activity at concentration x-fold lower than the cytotoxic concentration (IC50 in Vero cells) (HSV-2) [fold]	IC50 at 24 h [8] [µM]	zone of inhibition at 10000 µM [9] [mm]	inhibition at 50 µM (S. aureus ATCC 25923 [10]) [%]	MIC [11] [µM]	MIC [12] [µM]	MIC [13] [µM]	MIC [14] [µM]	inhibition at 50 µM [15] [%]	effect on the antibiofilm activity of TET compared to TET alone [16]	further results
CC[C@H](C)C[C@H](C)CCCCCCCCC(=O)N[C@H]1C[C@@H](O)[C@@H](NCCN)NC(=O)[C@@H]2[C@@H](O)CCN2C(=O)[C@H]([C@H](O)CCN)NC(=O)[C@H]([C@H](O)[C@@H](O)c2ccc(O)cc2)NC(=O)[C@@H]2C[C@@H](O)CN2C(=O)[C@H]([C@@H](C)O)NC1=O [CSP, caspofungin]	–	–	–	–	–	–	–	–	–	–	–	–	–	–	Minimal inhibitory concentration [1]: ≤0.007 to 0.110 µM; Minimal inhibitory concentration [2]: 0.110 to 1.83 µM; Minimal inhibitory concentration [3]: 0.055 to 0.229 µM
O=C1[Se]C(=O)c2ccccc21 [Compound 1]	13	6	> 30	12.5	8	> 100	> 30	> 70	50 (≈ 10.6 µg/mL)	> 200	> 200	100 (≈ 21.1 µg/mL)	–	–	zone of inhibition at 200 µM [4]: 2 mm; zone of inhibition at 200 µM [5]: 3 mm; zone of inhibition at 10000 µM [5]: > 30 mm; zone of inhibition at 200 µM [7]: 14 mm; zone of inhibition at 200 µM [9]: 11 mm
C[Se]C(=O)c1ccc(C(=O)[Se]C)s1 [Compound 2]	–	–	–	–	–	> 100	–	–	–	–	–	–	> 50	–	antiviral activity against HSV-2 (in words) (HSV-2; [20]): did not reduce the number of HSV-2
C[Se]C(=O)c1cccc(C(=O)[Se]C)n1 [Compound 3]	–	–	–	10	–	> 100	–	–	–	–	–	–	> 50	–	–
C[Se]C(=O)c1cccc(C(=O)[Se]C)c1 [Compound 4]	–	–	–	–	–	> 100	–	–	–	–	–	–	75	–	antiviral activity against HSV-2 (in words) (HSV-2; [20]): did not reduce the number of HSV-2; antibiofilm effect in the presence of TET [16]: significantly higher antibiofilm effects
C[Se]C(=O)c1ccc(C(=O)[Se]C)cc1 [Compound 5]	–	–	–	–	–	> 100	–	–	–	–	–	–	73	significantly reduced the activity of the antibiotic	antiviral activity against HSV-2 (in words) (HSV-2; [20]): did not reduce the number of HSV-2
NC(=O)C[Se]C(=O)c1ccccc1 [Compound 6]	< 10	–	–	25	2	> 100	–	> 70	–	–	–	–	–	–	–
COC(=O)C[Se]C(=O)c1ccc(Cl)cc1 [Compound 7]	–	–	–	12.5	8	> 100	–	> 70	–	–	–	–	–	significantly reduced the activity of the antibiotic	concentration at which replication of HSV-2 was completely inhibited (HSV-2; [20]): 50 µM; antifungal activity in the disk-diffusion assay (in words) [17]: did not show antifungal activity; effect on the antibiofilm activity of CIP (S. aureus ATCC 25923 [18]): significantly increased the activity of CIP
O=C(C[Se]C(=O)c1ccccc1)Oc1ccccc1 [Compound 8]	–	–	–	12.5	8	> 100	–	> 70	–	–	–	–	–	significantly reduced the activity of the antibiotic	antibiofilm effect in the presence of TET [16]: significantly higher antibiofilm effects
CC(=O)C[Se]C(=O)c1ccc(Cl)cc1 [Compound 9]	> 30	> 30	> 30	–	–	31	> 30	–	> 200	> 200	100 (≈ 27.6 µg/mL)	50 (≈ 13.8 µg/mL)	–	significantly reduced the activity of the antibiotic	zone of inhibition at 200 µM [4]: 6 mm; zone of inhibition at 200 µM [5]: 2 mm; zone of inhibition at 10000 µM [5]: 25 mm; zone of inhibition at 200 µM [6]: 4 mm; zone of inhibition at 200 µM [19]: 12 mm; zone of inhibition at 10000 µM [19]: 29 mm; antibiofilm effect in the presence of TET [16]: significantly higher antibiofilm effects; zone of inhibition at 200 µM [9]: 19 mm
CC(C)(C)C(=O)C[Se]C(=O)c1ccc(Cl)cc1 [Compound 10]	25	> 30	> 30	5	9	45	> 30	–	> 200	> 200	> 200	50 (≈ 15.9 µg/mL)	–	–	zone of inhibition at 10000 µM [5]: 16 mm; zone of inhibition at 200 µM [6]: 2 mm; antiviral activity at x-fold lower concentration than acyclovir (HSV-2): 8 fold; zone of inhibition at 200 µM [9]: 14 mm; inhibition at 10 µM (S. aureus ATCC 25923 [10]; compound at 10 μM): > 70%
COc1cc(OC)cc(C(=O)[Se]CC(=O)C(C)(C)C)c1 [Compound 11]	18	> 30	19	1.25	31	39	12	–	> 200	100 (≈ 34.3 µg/mL)	100 (≈ 34.3 µg/mL)	> 200	–	–	zone of inhibition at 200 µM [6]: 14 mm; antiviral activity at x-fold lower concentration than acyclovir (HSV-2): 4 fold; zone of inhibition at 200 µM [19]: 10 mm; zone of inhibition at 10000 µM [19]: 18 mm; effect on the antibiofilm activity of CIP (S. aureus ATCC 25923 [18]): significantly increased the activity of CIP; inhibition at 25 µM (S. aureus ATCC 25923 [10]; compound at 25 μM): > 70%
Nc1nc2c(ncn2COCCO)c(=O)[nH]1 [acyclovir, reference compound]	–	–	–	10	–	–	–	–	–	–	–	–	–	–	complete inhibition of HSV-2 replication (HSV-2; examined concentrations 1.25–2500 μM): could not inhibit the replication of HSV-2 completely
